According to patent US20220135567A1, “TYK2 PSEUDOKINASE LIGANDS” (Ventyx Biosciences, Inc., priority 2019, published 2022):

system: IFN-a/Jak1Tyk2; assay: Co-stimulation assay in lysed whole blood: IFNa (JAK1/TYK2) stimulated STAT1 phosphorylation; assay type: cell-based; conditions: 20 min, lysed human whole blood, IFNa 100 ng/mL + GM-CSF 10 ng/mL, pSTAT1 by flow cytometry
Procedure: Dilute RBC lysis buffer to 1× in distilled water. Add 2 mL blood to 38 mL of 1×RBC-lysis buffer. Incubate for 15 mins at RT, in dark. Spin at 300 g, 5 mins, to collect the pellet. Re-lyse if necessary. Re-suspend pellet in 5 mL of cRPMI.
Aliquot 80 μL of lysed human blood in to wells of 96 deep-well plate. Add 10 μl of (10× conc.) of different concentrations of compounds to all wells except controls (unstained and unstimulated) and mix it with the help of 100 uL multichannel. Add 10 uL of RPMI media in controls. For dilution of compounds and dilution range please refer Appendix. Incubate on water bath or CO2 incubator for 1 hour at 37° C. Add 10 μl of (10× conc.) of cytokine mix (GM-CSF and IFNa) (final conc. 10 ng/mL of GM-CSF and 100 ng/mL of IFNa) to each well except unstimulated and unstained controls and incubate further for 20 minutes on water bath at 37° C.
Add 900 μL of prewarmed 1× Fix/Lyse solution (Appendix) and mix it properly using 1000 μl multichannel, incubate further on water bath at 37° C. for 10 minutes (which includes time of addition). Centrifuge at 800×g for 5 minutes at 40° C.; remove 900 uL of supernatant and add 900 μL of 1×PBS. Centrifuge at 800×g for 5 minutes at 40° C., remove 900 μL of supernatant. Wash one more time with 900 μL of PBS (optional) and resuspend pellets in 100 uL of PBS.
Disrupt the pellet by gentle tapping and resuspend in 1000 μL of BD Phosflow Perm Buffer III and incubate plate on ice for 30 minutes. Centrifuge plate at 800×g for 5 minutes at 40° C. Wash two more times with 1000 μL of BD Pharmingen Stain Buffer.
Disrupt the pellet by gentle tapping. Resuspend pellets in 100 uL of Stain Buffer and add 5 μL of pSTAT5_AF488 Ab and 5 uL of pSTAT1_PE in all wells except unstained control and mix properly using 200 μl multichannel, incubate overnight at […]. Add 900 μL of wash buffer and centrifuge at 1800 rpm for 3 minutes at […]. Wash one more time with 1000 μL of BD Pharmingen Stain Buffer. Finally resuspend the pellet in 300 uL of BD Pharmingen Stain Buffer. Transfer the cells to 96-well v-bottom plate and acquire the cells in Beckman Coulter CytExpert. Acquiring cells in Flow Cytometer: Keep the threshold value to 250 and cell concentration should not exceed 100-500 cells/μL. Acquire at least 5,000-10,000 cells.
Cytokine dilution: 1) GM-CSF Stock at 100 ug/mL. Prepare an intermediate dilution of 1 ug/mL by adding 2 uL of stock into 198 uL of cRPMI. Further dilute to 100 ng/mL by adding 100 uL of the intermediate stock to 900 uL of cRPMI. 2) IFNa Stock at 200 ug/mL. Dilute IFNa stock 1:200 by adding 5 uL of stock into the 1000 uL of 100 ng/mL GM-CSF working stock as above to give a combined working stock of 1000 ng/mL of IFNa and 100 ng/mL GM-CSF (10×). Keep it on ice until used.
Lyse/Fix buffer preparation: Dilute 5× Lyse/Fix buffer to 1× using MQ water and keep at 37° C. until used.
BD Phosflow perm buffer III: Keep on ice/fridge.

Row | SMILES | IC50 [nM]
1 | CNc1cc(Nc2ccccc2OC)nc2c(C(=O)NC3CC3)cnn12 [Compound 16, N-cyclopropyl-5-((2-methoxyphenyl)amino)-7-(methylamino)pyrazolo[1,5-a]pyrimidine-3-carboxamide] | < 100
2 | CNc1cc(Nc2c(F)c(F)cc(F)c2F)nc2c(C(=O)NC3CC3)cnn12 [Compound 17, N-cyclopropyl-7-(methylamino)-5-((2,3,5,6-tetrafluorophenyl)amino)pyrazolo[1,5-a]pyrimidine-3-carboxamide] | < 100
3 | CNc1cc(Nc2cccc3c2OCCO3)nc2c(C(=O)NC3CC3)cnn12 [Compound 20, N-cyclopropyl-5-((2,3-dihydrobenzo[b][1,4]dioxin-5-yl)amino)-7-(methylamino)pyrazolo[1,5-a]pyrimidine-3-carboxamide] | < 100
4 | CNc1cc(Nc2ccccc2OC)nc2c(C(=O)NCC(C)(C)CO)cnn12 [Compound 22, N-(3-hydroxy-2,2-dimethylpropyl)-5-((2-methoxyphenyl)amino)-7-(methylamino)pyrazolo[1,5-a]pyrimidine-3-carboxamide] | < 100
5 | CNc1cc(Nc2cc(F)cc(F)c2OC)nc2c(C(=O)NCC(C)(C)CO)cnn12 [Compound 23, 5-((3,5-difluoro-2-methoxyphenyl)amino)-N-(3-hydroxy-2,2-dimethylpropyl)-7-(methylamino)pyrazolo[1,5-a]pyrimidine-3-carboxamide] | < 100
6 | CNc1cc(Nc2c(F)c(F)cc(F)c2F)nc2c(C(=O)NCC(C)(C)CO)cnn12 [Compound 24, N-(3-hydroxy-2,2-dimethylpropyl)-7-(methylamino)-5-((2,3,5,6-tetrafluorophenyl)amino)pyrazolo[1,5-a]pyrimidine-3-carboxamide] | < 100
7 | CNc1cc(Nc2cccc3c2OCCO3)nc2c(C(=O)NCC(C)(C)CO)cnn12 [Compound 25, 5-((2,3-dihydrobenzo[b][1,4]dioxin-5-yl)amino)-N-(3-hydroxy-2,2-dimethylpropyl)-7-(methylamino)pyrazolo[1,5-a]pyrimidine-3-carboxamide] | < 100
8 | CNc1cc(Nc2cc(F)cc(F)c2OC)nc2c(C(=O)NCC(C)(O)CO)cnn12 (centres unmarked) [Compound 26, 5-((3,5-difluoro-2-methoxyphenyl)amino)-N-(2,3-dihydroxy-2-methylpropyl)-7-(methylamino)pyrazolo[1,5-a]pyrimidine-3-carboxamide] | < 100
9 | CNc1cc(Nc2ccc3c(c2)OCCO3)nc2c(C(=O)NC3CC3)cnn12 [Compound 27, N-cyclopropyl-5-((2,3-dihydrobenzo [b][1,4]dioxin-6-yl)amino)-7-(methylamino)pyrazolo[1,5-a]pyrimidine-3-carboxamide] | < 100
10 | CNc1cc(Nc2ccccc2C(=O)OC)nc2c(C(=O)NC3CC3)cnn12 [Compound 28, methyl 2-((3-(cyclopropylcarbamoyl)-7-(methylamino)pyrazolo[1,5-a]pyrimidin-5-yl)amino)benzoate] | 100 to 1000
11 | CNc1cc(Nc2cccc(C(=O)OC)c2)nc2c(C(=O)NC3CC3)cnn12 [Compound 29, methyl 3-((3-(cyclopropylcarbamoyl)-7-(methylamino)pyrazolo[1,5-a]pyrimidin-5-yl)amino)benzoate] | 100 to 1000
12 | CNc1cc(Nc2cccnc2C)nc2c(C(=O)NC3CC3)cnn12 [Compound 31, N-cyclopropyl-7-(methylamino)-5-((2-methylpyridin-3-yl)amino)pyrazolo[1,5-a]pyrimidine-3-carboxamide] | > 300
13 | CNc1cc(Nc2cccn(-c3cc(C)n(C)n3)c2=O)nc2c(C(=O)NC3CC3)cnn12 [Compound 32, N-cyclopropyl-5-((1-(1,5-dimethyl-1H-pyrazol-3-yl)-2-oxo-1,2-dihydropyridin-3-yl)amino)-7-(methylamino)pyrazolo[1,5-a]pyrimidine-3-carboxamide] | 100 to 1000
14 | CNc1cc(Nc2cccn(-c3ccccn3)c2=O)nc2c(C(=O)NC3CC3)cnn12 [Compound 33, N-cyclopropyl-7-(methylamino)-5-((2-oxo-2H-[1,2′-bipyridin]-3-yl)amino)pyrazolo[1,5-a]pyrimidine-3-carboxamide] | < 100
15 | CNc1cc(Nc2ccccc2-n2cccn2)nc2c(C(=O)NC3CC3)cnn12 [Compound 34, 5-((2-(1H-pyrazol-1-yl)phenyl)amino)-N-cyclopropyl-7-(methylamino)pyrazolo[1,5-a]pyrimidine-3-carboxamide] | > 300
16 | CNc1cc(Nc2cscc2C(=O)O)nc2c(C(=O)NC3CC3)cnn12 [Compound 36, 4-((3-(cyclopropylcarbamoyl)-7-(methylamino)pyrazolo[1,5-a]pyrimidin-5-yl)amino)thiophene-3-carboxylic acid] | > 300
17 | CCOC(=O)c1cscc1Nc1cc(NC)n2ncc(C(=O)NC3CC3)c2n1 [Compound 37, ethyl 4-((3-(cyclopropylcarbamoyl)-7-(methylamino)pyrazolo[1,5-a]pyrimidin-5-yl)amino)thiophene-3-carboxylate] | > 300
18 | CCOC(=O)c1nscc1Nc1cc(NC)n2ncc(C(=O)NC3CC3)c2n1 [Compound 38, ethyl 4-((3-(cyclopropylcarbamoyl)-7-(methylamino)pyrazolo[1,5-a]pyrimidin-5-yl)amino)isothiazole-3-carboxylate] | > 300
19 | CNc1cc(Nc2csnc2C(=O)OC)nc2c(C(=O)NC3CC3)cnn12 [Compound 39, methyl 4-((3-(cyclopropylcarbamoyl)-7-(methylamino)pyrazolo[1,5-a]pyrimidin-5-yl)amino)isothiazole-3-carboxylate] | > 300
20 | CNc1cc(Nc2cccn(-c3ccc(OC)nn3)c2=O)nc2c(C(=O)NC3CC3)cnn12 [Compound 40, N-cyclopropyl-5-((1-(6-methoxypyridazin-3-yl)-2-oxo-1,2-dihydropyridin-3-yl)amino)-7-(methylamino)pyrazolo[1,5-a]pyrimidine-3-carboxamide] | < 100
21 | CNc1cc(Nc2cn(C)nc2C(=O)Nc2ccc(N(C)C)cc2)nc2c(C(=O)NC3CC3)cnn12 [Compound 41, N-cyclopropyl-5-((3-((4-(dimethylamino)phenyl)carbamoyl)-1-methyl-1H-pyrazol-4-yl)amino)-7-(methylamino)pyrazolo[1,5-a]pyrimidine-3-carboxamide] | < 100
22 | CCOC(=O)c1nn(C)cc1Nc1cc(NC)n2ncc(C(=O)NC3CC3)c2n1 [Compound 42, ethyl 4-((3-(cyclopropylcarbamoyl)-7-(methylamino)pyrazolo[1,5-a]pyrimidin-5-yl)amino)-1-methyl-1H-pyrazole-3-carboxylate] | 100 to 1000

same assay, conditions: lysed human whole blood; IFNa 100 ng/mL + GM-CSF 10 ng/mL, 20 minutes; pSTAT1 by flow cytometry

Row | SMILES | IC50 [nM]
23 | CNC(=O)c1cnn2c(NC)cc(Nc3cc(C)cc(C)c3)nc12 [Compound 9, 5-((3,5-dimethylphenyl)amino)-N-methyl-7-(methylamino)pyrazole [1,5-a]pyrimidine-3-carboxamide] | 1000 to 10000
24 | CNc1cc(Nc2cc(C)cc(C)c2)nc2c(C(N)=O)cnn12 [Compound 10, 5-((3,5-dimethylphenyl)amino)-7-(methylamino)pyrazole[1,5-a]pyrimidine-3-carboxamide] | < 100
25 | CNc1cc(Nc2cc(F)cc(F)c2OC)nc2c(C(N)=O)cnn12 [Compound 13, 5-((3,5-difluoro-2-methoxyphenyl)amino)-7-(methylamino)pyrazole[1,5-a]pyrimidine-3-carboxamide] | < 100
26 | CNc1cc(Nc2cc(F)cc(F)c2OC)nc2c(C(=O)NC3CC3)cnn12 [Compound 19] | < 100
